{"source": "paper PMC5849076", "about": "(Biochemistry, 2018)", "origin": "cited, not measured here", "key": {"[1]": {"test_system": "KpCld"}, "[2]": {"target": "DaCld (Dechloromonas aromatica, UniProt Q47CX0)", "sequence (Q47CX0 35-282)": "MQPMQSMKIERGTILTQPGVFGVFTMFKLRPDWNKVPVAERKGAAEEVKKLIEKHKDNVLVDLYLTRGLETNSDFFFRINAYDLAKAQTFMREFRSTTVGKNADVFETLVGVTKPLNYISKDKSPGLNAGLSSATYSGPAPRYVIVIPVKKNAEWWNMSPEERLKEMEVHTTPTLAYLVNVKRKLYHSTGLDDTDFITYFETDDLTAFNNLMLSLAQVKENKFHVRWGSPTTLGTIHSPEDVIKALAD"}}}
{"substance": "chlorite [ClO2^−]", "values": [{"measurement": "number of turnovers", "setting": "[1]", "value": "6700 ± 300", "unit": "equivalents ClO2^−/heme"}, {"measurement": "turnovers prior to irreversible inactivation", "setting": "[2]", "value": "> 20,000 equivalents of ClO2^− per heme"}]}
